This passage reports IC50 results from patent US8648066B2 (Exelixis, Inc., priority 2009, dated 2014).

For the experiment, the target named is mTOR/GbL/Raptor (mTORC1) (Homo sapiens, UniProt P42345). Kind of experiment: mTOR/GbL/Raptor (mTORC1) ELISA assay. Type of experiment: biochemical. The conditions noted are these: phosphorylation of 4E-BP1; 0.2 nM mTORC1, 10 μM ATP; read-out: IC50 in this assay (mTORC1 ELISA). Here is the method:
The measurement of mTORC1 enzyme activity was performed in an ELISA assay format following the phosphorylation of 4E-BP1 protein. All experiments were performed in the 384-well format. Generally, 0.5 μL DMSO containing varying concentrations of the test Compound was mixed with 15 μL enzyme solution. Kinase reactions were initiated with the addition of 15 μL of substrates-containing solution. The assay conditions were as follows; 0.2 nM mTORC1, 10 μM ATP and 50 nM NHis-tagged 4E-BP1 in 20 mM Hepes, pH 7.2, 1 mM DTT, 50 mM NaCl, 10 mM MnCl2, 0.02 mg/mL BSA, 0.01% CHAPS, 50 mM β-glycerophosphate. Following an incubation of 120 minutes at ambient temperature, 20 μL of the reaction volume was transferred to a Ni-Chelate-coated 384-well plate. The binding step of the 4E-BP1 protein proceeded for 60 minutes, followed by washing 4 times each with 50 μL of Tris-buffered saline solution (TBS). Anti-phospho-4E-BP1 rabbit-IgG (20 μL, 1:5000) in 5% BSA-TBST (0.2% Tween-20 in TBS) was added and further incubated for 60 minutes. Incubation with a secondary HRP-tagged anti-IgG was similarly performed after washing off the primary antibody (4 washes of 50 μL). Following the final wash step with TBST, 20 μL of SuperSignal ELISA Femto (Pierce Biotechnology) was added and the luminescence measured using an EnVision plate reader.

In the case of `CN(C)Cc1nc2c(c(N3CCOc4ccc(-c5cnc6sc(N)nc6c5)cc4C3)n1)CC(C)(C)CC2` [Example 526, 6-(4-{2-[(dimethylamino)methyl]-6,6-dimethyl-5,6,7,8-tetrahydroquinazolin-4-yl}-2,3,4,5-tetrahydro-1,4-benzoxazepin-7-yl)[1,3]thiazolo[5,4-b]pyridin-2-amine], the IC50 (as a rule, the concentration that inhibits the measured activity by half) lay within 10 to 50 nM. The value for `COC(=O)Nc1nc2ncc(-c3ccc4c(c3)CN(c3ncnc(C)c3Cc3ccc(F)cc3)CCO4)cc2[nH]1` [Example 175, methyl [6-(4-{5-[(4-fluorophenyl)methyl]-6-methylpyrimidin-4-yl}-2,3,4,5-tetrahydro-1,4-benzoxazepin-7-yl)-1H-imidazo[4,5-b]pyridin-2-yl]carbamate] was at most 10 nM; that for `CCc1c(C)nc(CN(C)C)nc1N1CCOc2ccc(-c3cnc4sc(N)nc4c3)cc2C1` [Example 662, 6-(4-{2-[(dimethylamino)methyl]-5-ethyl-6-methylpyrimidin-4-yl}-2,3,4,5-tetrahydro-1,4-benzoxazepin-7-yl)[1,3]thiazolo[5,4-b]pyridin-2-amine] was 50 to 250 nM; that for `Cc1nc(CN(C)C)nc(N2CCOc3ccc(-c4cnc5sc(N)nc5c4)cc3C2)c1CC(C)C` [Example 665, 6-(4-{2-[(dimethylamino)methyl]-6-methyl-5-(2-methylpropyl)pyrimidin-4-yl}-2,3,4,5-tetrahydro-1,4-benzoxazepin-7-yl)[1,3]thiazolo[5,4-b]pyridin-2-amine] was 10 to 50 nM. The value for `CCN1CCc2c(ncnc2N2CCOc3ccc(-c4ccc5nc(C)[nH]c5c4)cc3C2)C1` [Example 211, 4-(7-ethyl-5,6,7,8-tetrahydropyrido[3,4-d]pyrimidin-4-yl)-7-(2-methyl-1H-benzimidazol-6-yl)-2,3,4,5-tetrahydro-1,4-benzoxazepine] was 1000 to 2000 nM; that for `Cc1nc2ccc(-c3ccc4c(c3)CN(c3ncnc(C)c3Cc3cccc(Cl)c3)CCO4)cc2[nH]1` [Example 73, 4-{5-[(3-chlorophenyl)methyl]-6-methylpyrimidin-4-yl}-7-(2-methyl-1H-benzimidazol-6-yl)-2,3,4,5-tetrahydro-1,4-benzoxazepine] was at most 10 nM.

In the case of `COC(=O)Nc1nc2ncc(-c3ccc4c(c3)CN(c3nc(CN(C)C)nc5c3CC(C)(C)CC5)CCO4)cc2[nH]1` [Example 580], the IC50 was 50 to 250 nM. Take `Cc1nc2ccc(-c3ccc4c(c3)CN(c3cc(-c5ccccc5)nc5ccccc35)CCO4)cc2[nH]1` [Example 100, 7-(2-methyl-1H-benzimidazol-6-yl)-4-(2-phenylquinolin-4-yl)-2,3,4,5-tetrahydro-1,4-benzoxazepine]: the IC50 lay within 250 to 1000 nM. The value for `Cc1nc2ccc(-c3ccc4c(c3)CN(c3nc(CO)nc(C)c3C(C)C)CCO4)cc2[nH]1` [Example 687, {4-methyl-6-[7-(2-methyl-1H-benzimidazol-5-yl)-2,3-dihydro-1,4-benzoxazepin-4(5H)-yl]-5-(1-methylethyl)pyrimidin-2-yl}methanol] was at most 10 nM; that for `Cc1ncnc(N2CCOc3ccc(-c4ccc(C(N)=O)cc4)cc3C2)c1Cc1ccc(F)cc1` [Example 170, 4-(4-{5-[(4-fluorophenyl)methyl]-6-methylpyrimidin-4-yl}-2,3,4,5-tetrahydro-1,4-benzoxazepin-7-yl)benzamide] was at most 10 nM. As for `CCc1c(C)nc(CN(C)C)nc1N1CCOc2ccc(-c3ccc4[nH]c(C)nc4c3)cc2C1` [Example 349, 1-{5-ethyl-4-methyl-6-[7-(2-methyl-1H-benzimidazol-5-yl)-2,3-dihydro-1,4-benzoxazepin-4(5H)-yl]pyrimidin-2-yl}-N,N-dimethylmethanamine], the IC50 fell in the range of 250 to 1000 nM.

In the case of `CC1(C)CCc2ncnc(N3CCOc4ccc(-c5ccc6nc(NCCF)[nH]c6c5)cc4C3)c2C1` [Example 215, 6-[4-(6,6-dimethyl-5,6,7,8-tetrahydroquinazolin-4-yl)-2,3,4,5-tetrahydro-1,4-benzoxazepin-7-yl]-N-(2-fluoroethyl)-1H-benzimidazol-2-amine], the IC50 was at most 10 nM.

As for `Cc1nc2ncc(-c3ccc4c(c3)CN(c3ncnc5c3CC(C)(C)CC5)CCO4)cc2[nH]1` [Example 234, 4-(6,6-dimethyl-5,6,7,8-tetrahydroquinazolin-4-yl)-7-(2-methyl-1H-imidazo[4,5-b]pyridin-6-yl)-2,3,4,5-tetrahydro-1,4-benzoxazepine], the IC50 is at most 10 nM. The value for `CNS(=O)(=O)c1cc(-c2ccc3c(c2)CN(c2ncnc4c2CC(C)(C)CC4)CCO3)cnc1N` [Example 397, 2-amino-5-[4-(6,6-dimethyl-5,6,7,8-tetrahydroquinazolin-4-yl)-2,3,4,5-tetrahydro-1,4-benzoxazepin-7-yl]-N-methylpyridine-3-sulfonamide] was at most 10 nM; that for `CC1(C)CCc2ncnc(N3CCOc4ccc(-c5cnc(N)c(S(=O)(=O)NC(C)(C)CN)c5)cc4C3)c2C1` [Example 403, 2-amino-N-(2-amino-1,1-dimethylethyl)-5-[4-(6,6-dimethyl-5,6,7,8-tetrahydroquinazolin-4-yl)-2,3,4,5-tetrahydro-1,4-benzoxazepin-7-yl]pyridine-3-sulfonamide] was 10 to 50 nM. The same measure for `Cc1nc2c(C)cc(-c3ccc4c(c3)CN(c3ncnc5cccnc35)CCO4)cc2[nH]1` [Example 214, 7-(2,4-dimethyl-1H-benzimidazol-6-yl)-4-pyrido[3,2-d]pyrimidin-4-yl-2,3,4,5-tetrahydro-1,4-benzoxazepine]: 250 to 1000 nM; for `Cc1nc2ccc(-c3ccc4c(c3)CN(c3nc(CNC5CC5)nc5c3CC(C)(C)CC5)CCO4)cc2[nH]1` [Example 588, N-({6,6-dimethyl-4-[7-(2-methyl-1H-benzimidazol-6-yl)-2,3-dihydro-1,4-benzoxazepin-4(5H)-yl]-5,6,7,8-tetrahydroquinazolin-2-yl}methyl)cyclopropanamine]: 10 to 50 nM. The value for `COc1ccc2c(N3CCOc4ccc(-c5cnc6nc[nH]c6c5)cc4C3)nc(C)nc2c1` [Example 542, 7-(1H-imidazo[4,5-b]pyridin-6-yl)-4-[2-methyl-7-(methyloxy)quinazolin-4-yl]-2,3,4,5-tetrahydro-1,4-benzoxazepine] was 50 to 250 nM; that for `CC1(C)CCc2ncnc(N3CCOc4ccc(-c5cnc(N)c(S(=O)(=O)N6CCNCC6)c5)cc4C3)c2C1` [Example 514, 5-[4-(6,6-dimethyl-5,6,7,8-tetrahydroquinazolin-4-yl)-2,3,4,5-tetrahydro-1,4-benzoxazepin-7-yl]-3-(piperazin-1-ylsulfonyl)puridin-2-amine] was at most 10 nM. Turning to `CC1(C)CCc2ncnc(N3CCOc4ccc(-c5cnc(N)c(S(=O)(=O)N6CCCC(O)C6)c5)cc4C3)c2C1` (stereo not drawn) [Example 316], the IC50 was in the range of 10 to 50 nM. The same measure for `C=Cc1nc2c(c(N3CCOc4ccc(-c5cnc6[nH]c(C)nc6c5)cc4C3)n1)CC(C)(C)CC2` [Example 465, 4-(2-ethenyl-6,6-dimethyl-5,6,7,8-tetrahydroquinazolin-4-yl)-7-(2-methyl-3H-imidazo[4,5-b]pyridin-6-yl)-2,3,4,5-tetrahydro-1,4-benzoxazepine]: 10 to 50 nM; for `Cc1nc2ccc(-c3ccc4c(c3)CN(c3ccnc(C)c3Cc3ccccc3)CCO4)cc2[nH]1` [Example 101, 7-(2-methyl-1H-benzimidazol-6-yl)-4-[2-methyl-3-(phenylmethyl)pyridin-4-yl]-2,3,4,5-tetrahydro-1,4-benzoxazepine]: 10 to 50 nM; for `CCNc1nc2ccc(-c3ccc4c(c3)CN(c3ccnc5ccc(F)cc35)CCO4)cc2[nH]1` [Example 283, N-ethyl-6-[4-(6-fluoroquinolin-4-yl)-2,3,4,5-tetrahydro-1,4-benzoxazepin-7-yl]-1H-benzimidazol-2-amine]: 50 to 250 nM.

As for `Cc1nc2ncc(-c3ccc4c(c3)CN(c3nc(CN5CCOCC5)nc5c3CC(C)(C)CC5)CCO4)cc2[nH]1` [Example 498, 4-[6,6-dimethyl-2-(morpholin-4-ylmethyl)-5,6,7,8-tetrahydroquinazolin-4-yl]-7-(2-methyl-1H-imidazo[4,5-b]pyridin-6-yl)-2,3,4,5-tetrahydro-1,4-benzoxazepine], the IC50 was in the range of 50 to 250 nM. The same measure for `Cc1ncnc(N2CCOc3ccc(-c4cncs4)cc3C2)c1Cc1ccc(F)cc1` [Example 150, 4-{5-[(4-fluorrophenyl)methyl]-6-methylpyrimidin-4-yl}-7-(1,3-thiazol-5-yl)-2,3,4,5-tetrahydro-1,4-benzoxazepine]: 50 to 250 nM.

As for `CNCc1nc2c(c(N3CCOc4ccc(-c5cnc6nc(C)[nH]c6c5)cc4C3)n1)CC(C)(C)CC2` [Example 354, 1-{6,6-dimethyl-4-[7-(2-methyl-1H-imidazo[4,5-b]pyridin-6-yl)-2,3-dihydro-1,4-benzoxazepin-4(5H)-yl]-5,6,7,8-tetrahydroquinazolin-2-yl}-N-methylmethanamine], the IC50 was at most 10 nM. The value for `CC1(C)CCc2ncnc(N3CCOc4ccc(-c5cnc(N)c(S(=O)(=O)N6CC7CNCC7C6)c5)cc4C3)c2C1` (stereo not drawn) [Example 511, 5-[4-(6,6-dimethyl-5,6,7,8-tetrahydroquinazolin-4-yl)-2,3,4,5-tetrahydro-1,4-benzoxazepin-7-yl]-3-(hexahydropyrrolo[3,4-c]pyrrol-2(1H)-ylsulfonyl)pyridin-2-amine] was 50 to 250 nM.
